Experimental data as given in patent US20230265116A1, “DEGRADATION OF (EGFR) BY CONJUGATION OF EGFR INHIBITORS WITH E3 LIGASE LIGAND AND METHODS OF USE” (BEIGENE, LTD., priority 2020, published 2023).

Columns and labels:
[1] = test system: EGFR Del19/T790M/C797S (BaF3-DTC cells); test: EGFR degradation HTRF assay, BaF3-DTC cells; assay type: cell-based; settings: 16h treatment; for DTC Dmax (%): maximum percentage of degradation; for DC50: read-out: DTC DC50
In short: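 EGFR remaining after a 16 h, 37 °C exposure (8 doses, 5-fold steps from 10 uM final, 0.2% DMSO) was quantified by HTRF antibodies in cell lysate. Percent inhibition relative to DMSO control was fitted by four-parameter logistic to give DC50; Dmax denotes maximal degradation.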

[2] = target: T1, EGFR L858R/T790M/C797S (BaF3-LTC cells) (Homo sapiens, UniProt P00533, C797S/L858R/T790M); test: EGFR degradation HTRF assay, BaF3-LTC cells; assay type: cell-based; settings: BaF3-LTC, 16h treatment; for Dmax: maximum percentage of degradation, read-out: LTC Dmax (%); for DC50: read-out: LTC DC50
T1 construct: expressed in transfected cells; host or cells: BaF3
In short: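 Cells treated 16 h at 37 °C, 5% CO2 in medium with 0.2% DMSO; top final concentration 10 uM, 5-fold dilution, 8 doses. Lysates read by HTRF (665/620 nm); degradation % versus DMSO high control, DC50 from four-parameter fit, Dmax as maximal degradation.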

T1 sequence (P00533 25-1210 T790M/C797S/L858R): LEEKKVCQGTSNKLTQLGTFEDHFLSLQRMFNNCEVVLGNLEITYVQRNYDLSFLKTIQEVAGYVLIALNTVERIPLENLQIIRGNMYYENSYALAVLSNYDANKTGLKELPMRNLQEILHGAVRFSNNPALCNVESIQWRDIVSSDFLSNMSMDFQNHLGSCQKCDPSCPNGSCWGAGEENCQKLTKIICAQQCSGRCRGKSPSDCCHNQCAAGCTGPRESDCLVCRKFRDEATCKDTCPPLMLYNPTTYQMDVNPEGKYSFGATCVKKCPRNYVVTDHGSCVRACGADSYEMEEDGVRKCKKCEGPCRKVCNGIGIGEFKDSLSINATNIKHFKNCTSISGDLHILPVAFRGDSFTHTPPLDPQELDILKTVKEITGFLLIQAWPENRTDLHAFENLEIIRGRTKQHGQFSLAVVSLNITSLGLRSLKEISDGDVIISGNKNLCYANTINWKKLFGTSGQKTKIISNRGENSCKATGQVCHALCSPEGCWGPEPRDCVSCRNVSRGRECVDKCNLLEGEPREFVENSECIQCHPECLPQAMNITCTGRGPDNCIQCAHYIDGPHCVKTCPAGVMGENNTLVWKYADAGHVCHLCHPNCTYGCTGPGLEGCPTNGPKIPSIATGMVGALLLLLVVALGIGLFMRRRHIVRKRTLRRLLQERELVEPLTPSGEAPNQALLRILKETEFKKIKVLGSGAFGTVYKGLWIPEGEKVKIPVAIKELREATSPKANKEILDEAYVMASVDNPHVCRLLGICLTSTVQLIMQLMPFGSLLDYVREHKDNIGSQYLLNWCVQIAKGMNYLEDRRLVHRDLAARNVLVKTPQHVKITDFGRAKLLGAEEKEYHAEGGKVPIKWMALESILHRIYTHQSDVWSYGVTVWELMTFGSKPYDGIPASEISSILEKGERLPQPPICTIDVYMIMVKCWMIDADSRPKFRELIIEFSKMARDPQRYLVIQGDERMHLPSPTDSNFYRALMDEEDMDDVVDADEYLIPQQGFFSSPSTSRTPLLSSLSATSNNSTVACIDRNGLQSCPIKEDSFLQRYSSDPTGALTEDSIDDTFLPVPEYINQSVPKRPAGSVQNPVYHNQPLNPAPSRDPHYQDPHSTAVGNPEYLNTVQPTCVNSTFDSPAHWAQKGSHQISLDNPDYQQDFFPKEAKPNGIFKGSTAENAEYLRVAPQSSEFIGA

Structure (SMILES)	DC50 [1] [nM]	Dmax [2] [%]	DC50 [2] [nM]	DTC Dmax (%) [1] [%]
CCc1cc(Nc2ncc(Br)c(Nc3ccc4nccnc4c3P(C)(C)=O)n2)c(OC)cc1N1CCC(N2CCN(C(=O)[C@@H]3CCN(c4ccc5c(c4)CN(C4CCC(=O)NC4=O)C5=O)C3)CC2)CC1 (stereo partly drawn) [Example 241, 3-(5-((R)-3-(4-(1-(4-((5-bromo-4-((5-(dimethylphosphoryl)quinoxalin-6-yl)amino)pyrimidin-2-yl)amino)-2-ethyl-5-methoxyphenyl)piperidin-4-yl)piperazine-1-carbonyl)pyrrolidin-1-yl)-1-oxoisoindolin-2-yl)piperidine-2,6-dione]	3.26	87.6	4.6	89.74
CCc1cc(Nc2ncc(Br)c(Nc3ccc4nccnc4c3P(C)(C)=O)n2)c(OC)cc1N1CCC(N2CCN(C3CCN(c4ccc(C5CCC(=O)NC5=O)cc4)C3)CC2)CC1 (stereo not drawn) [Example 281, 3-(4-(3-(4-(1-(4-((5-bromo-4-((5-(dimethylphosphoryl)quinoxalin-6-yl)amino)pyrimidin-2-yl)amino)-2-ethyl-5-methoxyphenyl)piperidin-4-yl)piperazin-1-yl)pyrrolidin-1-yl)phenyl)piperidine-2,6-dione]	43.3	74.6	63.3	67.1
CCc1cc(Nc2ncc(Br)c(Nc3ccc4nc(C)ccc4c3P(C)(C)=O)n2)c(OC)cc1N1CCC(N2CCN(CC3CN(c4ccc(C5CCC(=O)NC5=O)c(C#N)c4)C3)CC2)CC1 (stereo not drawn) [Example 207, 5-(3-((4-(1-(4-((5-bromo-4-((5-(dimethylphosphoryl)-2-methylquinolin-6-yl)amino)pyrimidin-2-yl)amino)-2-ethyl-5-methoxyphenyl)piperidin-4-yl)piperazin-1-yl)methyl)azetidin-1-yl)-2-(2,6-dioxopiperidin-3-yl)benzonitrile]	6.6	91.3	13.2	90.41
COc1cc(N2CCC(N3CC4CC(C3)N4CCC3CCN(c4cc(F)c(C5CCC(=O)NC5=O)c(F)c4)CC3)CC2)c(C)cc1Nc1ncc(Br)c(Nc2ccc3nccnc3c2P(C)(C)=O)n1 (stereo not drawn) [Example 266, 3-(4-(4-(2-(3-(1-(4-((5-bromo-4-((5-(dimethylphosphoryl)quinoxaline-6-yl)amino)pyrimidin-2-yl)amino)-5-methoxy-2-methylphenyl)piperidin-4-yl)-3,6-diazabicyclo[3.1.1]heptan-6-yl)ethyl)piperidin-1-yl)-2,6-difluorophenyl)piperidine-2,6-dione]	50.3	73.6	81.9	83.88
CCc1cc(Nc2ncc(Br)c(Nc3ccc4nccnc4c3P(C)(C)=O)n2)c(OC)cc1N1CCC(N2CCN(CCc3cc(Cl)c(C4CCC(=O)NC4=O)cc3F)CC2)CC1 (stereo not drawn) [Example 166, 3-(4-(2-(4-(1-(4-((5-bromo-4-((5-(dimethylphosphoryl)quinoxalin-6-yl)amino)pyrimidin-2-yl)amino)-2-ethyl-5-methoxyphenyl)piperidin-4-yl)piperazin-1-yl)ethyl)-2-chloro-5-fluorophenyl)piperidine-2,6-dione]	13.5	80.1	49.3	85.99
COc1cc(N2CCN(C3CN(CCC4CCN(c5cc(F)c(C6CCC(=O)NC6=O)c(F)c5)CC4)C3)CC2)c(C)cc1Nc1ncc(Br)c(Nc2ccc3nccnc3c2P(C)(C)=O)n1 (stereo not drawn) [Example 204, 3-(4-(4-(2-(3-(4-(4-((5-bromo-4-((5-(dimethylphosphoryl)quinoxalin-6-yl)amino)pyrimidin-2-yl)amino)-5-methoxy-2-methylphenyl)piperazin-1-yl)azetidin-1-yl)ethyl)piperidin-1-yl)-2,6-difluorophenyl)piperidine-2,6-dione]	15.6	85.7	31	91.45
CCc1cc(Nc2ncc(Br)c(Nc3ccc4nccnc4c3P(C)(C)=O)n2)c(OC)cc1N1CCC(N2CCN(CC3CN(c4cccc(C5CCC(=O)NC5=O)c4)C3)CC2)CC1 (stereo not drawn) [Example 226, 3-(3-(3-((4-(1-(4-((5-bromo-4-((5-(dimethylphosphoryl)quinoxalin-6-yl)amino)pyrimidin-2-yl)amino)-2-ethyl-5-methoxyphenyl)piperidin-4-yl)piperazin-1-yl)methyl)azetidin-1-yl)phenyl)piperidine-2,6-dione]	26.6	66.9	31.4	77.91

More lines, main results first:

DC50 [1] [nM]	Dmax [2] [%]	DC50 [2] [nM]	Structure (SMILES)	DTC Dmax (%) [1] [%]
6.3	83	33.5	CCc1cc(Nc2ncc(Br)c(Nc3ccc4nccnc4c3P(C)(C)=O)n2)c(OC)cc1N1CCC(N2CCN(C(=O)[C@H]3C[C@H](N(C)c4ccc5c(c4)C(=O)N(C4CCC(=O)NC4=O)C5=O)C3)CC2)CC1 (stereo partly drawn) [Example 236, 5-(((1r,3r)-3-(4-(1-(4-((5-bromo-4-((5-(dimethylphosphoryl)quinoxalin-6-yl)amino)pyrimidin-2-yl)amino)-2-ethyl-5-methoxyphenyl)piperidin-4-yl)piperazine-1-carbonyl)cyclobutyl)(methyl)amino)-2-(2,6-dioxopiperidin-3-yl)isoindoline-1,3-dione]	90.89
9.59	79	48.7	CCc1cc(Nc2ncc(Br)c(Nc3ccc4nc(C(C)C)ccc4c3P(C)(C)=O)n2)c(OC)cc1N1CCC(N2CCN(CCc3cc(F)c(C4CCC(=O)NC4=O)c(F)c3)CC2)CC1 (stereo not drawn) [Example 316, 3-(4-(2-(4-(1-(4-((5-bromo-4-((5-(dimethylphosphoryl)-2-isopropylquinolin-6-yl)amino)pyrimidin-2-yl)amino)-2-ethyl-5-methoxyphenyl)piperidin-4-yl)piperazin-1-yl)ethyl)-2,6-difluorophenyl)piperidine-2,6-dione]	89.57
7.28	91.9	49.4	CCc1cc(Nc2ncc(Br)c(Nc3ccc4c(=O)n(C)cnc4c3P(C)(C)=O)n2)c(OC)cc1N1CCC(N2CCN(CCC3CCN(c4cc(F)c(C5CCC(=O)NC5=O)c(F)c4)CC3)CC2)CC1 (stereo not drawn) [Example 721, 3-(4-(4-(2-(4-(1-(4-((5-bromo-4-((8-(dimethylphosphoryl)-3-methyl-4-oxo-3,4-dihydroquinazolin-7-yl)amino)pyrimidin-2-yl)amino)-2-ethyl-5-methoxyphenyl)piperidin-4-yl)piperazin-1-yl)ethyl)piperidin-1-yl)-2,6-difluorophenyl)piperidine-2,6-dione]	88.98
0.781	90.5	1.24	CCc1cc(Nc2ncc(Br)c(Nc3ccc4nc(C)ccc4c3P(C)(C)=O)n2)c(OC)cc1N1CCC(N2CCN(C(=O)C3CCN(c4ccc5c(c4)n(C)c(=O)n5C4CCC(=O)NC4=O)CC3)CC2)CC1 (stereo not drawn) [Example 210, 3-(5-(4-(4-(1-(4-((5-bromo-4-((5-(dimethylphosphoryl)-2-methylquinolin-6-yl)amino)pyrimidin-2-yl)amino)-2-ethyl-5-methoxyphenyl)piperidin-4-yl)piperazine-1-carbonyl)piperidin-1-yl)-3-methyl-2-oxo-2,3-dihydro-1H-benzo[d]imidazol-1-yl)piperidine-2,6-dione]	92.69
5.2	84.8	22.9	CCc1cc(Nc2ncc(Br)c(Nc3ccc4nccnc4c3P(C)(C)=O)n2)c(OC)cc1N1CCC(N2CCN(CCc3ccc(C4CCC(=O)NC4=O)c(F)c3)[C@@H](CO)C2)CC1 (stereo partly drawn) [Example 287, 3-(4-(2-((R)-4-(1-(4-((5-bromo-4-((5-(dimethylphosphoryl)quinoxalin-6-yl)amino)pyrimidin-2-yl)amino)-2-ethyl-5-methoxyphenyl)piperidin-4-yl)-2-(hydroxymethyl)piperazin-1-yl)ethyl)-2-fluorophenyl)piperidine-2,6-dione]	88.55
3.29	92.1	5.79	CCc1cc(Nc2ncc(Br)c(Nc3ccc4nc(C)c(C)cc4c3P(C)(C)=O)n2)c(OC)cc1N1CCC(N2CCN(CCc3cc(F)c(C4CCC(=O)NC4=O)c(F)c3)CC2)CC1 (stereo not drawn) [Example 707, 3-(4-(2-(4-(1-(4-((5-bromo-4-((5-(dimethylphosphoryl)-2,3-dimethylquinolin-6-yl)amino)pyrimidin-2-yl)amino)-2-ethyl-5-methoxyphenyl)piperidin-4-yl)piperazin-1-yl)ethyl)-2,6-difluorophenyl)piperidine-2,6-dione]	82.86
5.56	87.7	23.3	COc1cc(N2CCC(N3CCN(CCC4CCN(c5cc(F)c(C6CCC(=O)NC6=O)c(F)c5)CC4)CC3=O)CC2)c(C)cc1Nc1ncc(Br)c(Nc2ccc3nccnc3c2P(C)(C)=O)n1 (stereo not drawn) [Example 216, 3-(4-(4-(2-(4-(1-(4-((5-bromo-4-((5-(dimethylphosphoryl)quinoxalin-6-yl)amino)pyrimidin-2-yl)amino)-5-methoxy-2-methylphenyl)piperidin-4-yl)-3-oxopiperazin-1-yl)ethyl)piperidin-1-yl)-2,6-difluorophenyl)piperidine-2,6-dione]	93.59
4.87	91.8	10.3	CCc1cc(Nc2ncc(Br)c(Nc3ccc4nccnc4c3P(C)(C)=O)n2)c(OC)cc1N1CCC(N2CCN(C(=O)C3CN(c4ccc5c(c4)C(=O)N(C4CCC(=O)NC4=O)C5)C3)CC2)CC1 (stereo not drawn) [Example 227, 3-(6-(3-(4-(1-(4-((5-bromo-4-((5-(dimethylphosphoryl)quinoxalin-6-yl)amino)pyrimidin-2-yl)amino)-2-ethyl-5-methoxyphenyl)piperidin-4-yl)piperazine-1-carbonyl)azetidin-1-yl)-1-oxoisoindolin-2-yl)piperidine-2,6-dione]	90.5
